{"source": "patent US20230312584A1", "about": "“SALT OF NUCLEOSIDE ANALOG, AND CRYSTAL FORM, PHARMACEUTICAL COMPOSITION AND USE THEREOF” (priority 2020, published 2023)", "key": {"[1]": {"assay_type": "physicochemical", "conditions": "7 days", "protocol": "The test product is placed in suitable clean containers, and then placed under conditions of high temperature (80° C.), high humidity (25° C., relative humidity 92.5%), and light (light intensity 4500±500 1× and 90 μw/cm^2), respectively, for 7 days, and samples are taken on the 7th day and tested according to the stability inspection items."}, "[2]": {"assay": "Toxicity test of a single intragastric administration to beagle dogs", "assay_type": "in vivo", "conditions": "both sexes, beagle, dog, in vivo, po", "protocol": "(§1) The safety of the hydrobromide of Compound Z in SD rats and beagle dogs was evaluated in accordance with the “Good Laboratory Practice” (2017) issued by the National Medical Products Administration (NMPA), and the acute toxicity test and 14-day long-term toxicity test were carried out, respectively.\n(§2) Method: 8 beagle dogs were randomly divided into 4 groups, 2 dogs in each group, one male and one female. The dogs were given a single intragastric administration of a solvent of PEG400/Kolliphor® HS 15/ultrapure water (40/10/50, v/v/v) and the hydrobromide of Compound Z (50, 250 and 1000 mg/kg, based on the free base) dissolved in this solvent, respectively. After administration, observation was continued for 14 days, and dissection was performed on the 15th day as planned. Clinical observations, body weight, feed consumption, clinical pathology (blood, blood coagulation, plasma biochemistry), and morphological observation by naked eyes were evaluated."}, "beagle dogs [3]": {"tested_on": "beagle dogs", "assay": "Toxicity test of a single intragastric administration to beagle dogs", "assay_type": "in vivo", "conditions": "beagle dogs, single intragastric 50, 250 and 1000 mg/kg", "protocol": "as §1, §2"}, "in vivo": {"assay": "in vivo", "design": "species or system SD rats", "conditions": "both sexes, Sprague-Dawley (SD), rat, po", "protocol": "as §1\n(§3) Method: 120 SD rats were randomly divided into 4 groups, 30 rats in each group, half male and half female. The rats were given an intragastric administration of a solvent of PEG400/Kolliphor® HS15/ultrapure water (40/10/50, v/v/v) and the hydrobromide (100, 300 and 600 mg/kg) of Compound Z dissolved in the solvent, respectively, once a day for 14 consecutive days; two-thirds of the animals in each group (20 animals in each group, half male and half female) were dissected after the end of the administration period (day 15); the remaining animals in each group (10 animals in each group, half male and half female) were dissected at the end of the 14-day recovery period (day 29). The following indexes were observed, measured and evaluated: clinical observations, body weight, feed consumption, ophthalmological examination, hematology, blood coagulation, plasma biochemistry and plasma electrolytes, urinalysis, anatomical and morphological observation by naked eyes, organ weight and histopathological examination, and the accompanying rat bone marrow micronucleus test."}, "SD rats [4]": {"tested_on": "SD rats", "assay": "in vivo", "conditions": "both, Sprague-Dawley (SD), rat, 600 mg/kg, 14 days", "protocol": "as §1, §3"}, "[5]": {"assay": "Toxicity test of beagle dogs by intragastric administration for 14 days and drug withdrawal for 14 days", "assay_type": "in vivo", "conditions": "both sexes, dog, in vivo, po; beagle dogs, males and females, intragastric once a day for 14 consecutive days, 14 days recovery; read-out: no-observed-adverse-effect level (NOAEL)", "protocol": "as §1\n(§4) Test method: 40 beagle dogs were randomly divided into 4 groups, 10 dogs in each group, half male and half female. The dogs were given an intragastric administration of a solvent of PEG400/Kolliphor® HS15/ultrapure water (40/10/50, v/v/v) and the hydrobromide (30, 100 and 250 mg/kg) of Compound Z dissolved in the solvent, respectively, once a day for 14 consecutive days; three-fifths of the animals in each group (6 animals in each group, half male and half female) were dissected after the end of the administration period (day 15); the remaining animals in each group (4 animals in each group, half male and half female) were dissected at the end of the 14-day recovery period (day 29). The following indexes were observed, measured and evaluated: clinical observations, ophthalmological examination, body weight, feed consumption, body temperature, electrocardiogram (HR, PR interval, QRS interval, T wave amplitude, QT interval and QTcV interval), clinical Pathology (hematology, blood coagulation, plasma biochemistry, urine), pathological examination (morphological observation by naked eyes, organ weight, histopathological examination)."}, "beagle dogs [6]": {"tested_on": "beagle dogs", "assay": "Toxicity test of beagle dogs by intragastric administration for 14 days and drug withdrawal for 14 days", "assay_type": "in vivo", "protocol": "as §1, §4"}, "[7]": {"assay": "Toxicity test of a single intragastric administration to SD rats", "assay_type": "in vivo", "conditions": "both sexes, Sprague-Dawley (SD), rat, in vivo, po", "protocol": "as §1\n(§5) Method: 40 SD rats were randomly divided into 4 groups, 10 rats in each group, half male and half female. The rats were given a single intragastric administration of a solvent of PEG400/Kolliphor® HS 15/ultrapure water (40/10/50, v/v/v) and the hydrobromide of Compound Z (200, 600 and 2000 mg/kg, based on the free base) dissolved in this solvent, respectively. After administration, observation was continued for 14 days, and dissection was performed on the 15th day as planned. During the test, clinical observations, body weight, feed consumption and anatomical and morphological observations by naked eyes were evaluated."}, "SD rats [8]": {"tested_on": "SD rats", "assay": "Toxicity test of a single intragastric administration to SD rats", "assay_type": "in vivo", "conditions": "SD rats, single intragastric 200, 600 and 2000 mg/kg, 14 days observation", "protocol": "as §1, §5"}, "physchem": {"assay": "physchem", "assay_type": "physicochemical", "conditions": "37 °C, water, thermodynamic from solid, Solubility in water", "protocol": "About 10 mg of the test product is taken and put in a 1.5 mL sample tube, to which 1 mL of deionized water is added, and then the sample tube is placed in a constant temperature mixer and shaken at 37° C. for 30 minutes; after shaking, the sample tube is placed in a centrifuge to undergo centrifugation for 2 minutes. Then, 500 μL of the supernatant is taken and diluted with acetonitrile to an appropriate concentration, which is used as a test sample solution for HPLC analysis.\nAn appropriate amount of sample was weighed and put in a glass test tube, to which a selected solvent was gradually added. The clarification process was observed."}, "Hygroscopicity test": {"assay": "Hygroscopicity test", "assay_type": "physicochemical", "conditions": "25° C., RH80%, 24 hours, hydrobromide", "protocol": "An appropriate amount of a test product is taken and spread in a glass-stoppered weighing bottle that has been placed in an artificial climate box (temperature is 25° C.±1° C., relative humidity is 80%±2%) for 24 hours. The weighing bottle is opened, put together with the stopper in the artificial climate box (the temperature is 25° C.±1° C., the relative humidity is 80%±2%) for 24 hours, and then taken out. The moisture content of the test product before and after being placed in the artificial climate box is measured, and the hygroscopicity is measured by comparing the change in moisture content."}, "[9]": {"conditions": "listed as Hydrobromide of Compound Z with crystal form A"}}}
{"compound": "Br.[2H]c1cc([C@]2(C#N)O[C@H](COC(=O)C(C)C)[C@@H](OC(=O)C(C)C)[C@H]2OC(=O)C(C)C)n2ncnc(N)c12", "note": "[Hydrobromide of Compound Z, (2R,3R,4R,5R)-2-(4-aminopyrrolo[2,1-f][1,2,4]triazin-7-yl-5-d)-2-cyano-5-(isobutyryloxymethyl)tetrahydrofuran-3,4-diyl bis(2-methylpropanoate) hydrobromide]", "values": [{"measurement": "Stability", "setting": "[1]", "result": "Good stability under high temperature (80° C.), high"}, {"measurement": "MTD at 14 days", "setting": "[2]", "result": "≥ 1000", "unit": "mg/kg"}, {"measurement": "accidental death", "setting": "beagle dogs [3]", "result": "no accidental death"}, {"measurement": "NOAEL at 14 days", "setting": "in vivo", "result": 100, "unit": "mg/kg"}, {"measurement": "death", "setting": "SD rats [4]", "result": "two animals in the 600 mg/kg dose group died"}, {"measurement": "NOAEL at 14 days", "setting": "[5]", "result": 30, "unit": "mg/kg"}, {"measurement": "adverse drug reactions", "setting": "beagle dogs [6]; beagle dogs, 250 mg/kg and 100 mg/kg intragastric once a day for 14 days", "result": "adverse drug reactions in ophthalmological examination, clinical pathology, pathological examination, and the like could be observed"}, {"measurement": "accidental death", "setting": "beagle dogs [6]; beagle dogs, 30, 100 and 250 mg/kg intragastric once a day for 14 days", "result": "no accidental death"}, {"measurement": "various indexes at the end of the recovery period", "setting": "beagle dogs [6]; beagle dogs, after 14-day recovery period", "result": "returned to normal or showed a recovery trend"}, {"measurement": "MTD at 14 days", "setting": "[7]", "result": "≥ 2000", "unit": "mg/kg"}, {"measurement": "early death or euthanasia", "setting": "SD rats [8]", "result": "no early death or euthanasia"}, {"measurement": "solubility at 30 min", "setting": "physchem", "result": 410, "unit": "µg/mL"}, {"measurement": "Hygroscopicity", "setting": "Hygroscopicity test", "result": "None"}, {"measurement": "increase in moisture content", "setting": "Hygroscopicity test", "result": "no increase"}, {"measurement": "Hygroscopicity", "setting": "Hygroscopicity test; [9]", "result": "no hygroscopicity"}, {"measurement": "increase in moisture content", "setting": "Hygroscopicity test; [9]", "result": "RH80%, with an increase in moisture content of <0.1%,"}, {"measurement": "Hygroscopicity", "setting": "Hygroscopicity test; listed as hydrobromide of Compound Z with crystal form A", "result": "no hygroscopicity"}, {"measurement": "Hygroscopicity", "setting": "Hygroscopicity test; listed as hydrobromide of Compound Z", "result": "no hygroscopicity"}]}
